According to paper PMC6150270, “Solvent and Copper Ion-Induced Synthesis of Pyridyl–Pyrazole-3-One Derivatives: Crystal Structure, Cytotoxicity” (Molecules : A Journal of Synthetic Chemistry and Natural …, 2017):

Legend:
[1] = tested on: normal liver cell line HL-7702; test: MTT cytotoxicity assay, HL-7702; type: cell-based, human; settings: normal liver cells; for IC50: 48 h, MTT, mean ± SD; for inhibition at 20 µM: read-out: Inhibition rate HL-7702
Method: (§1) The cytotoxicities of compounds 1–5 against the human tumor cell lines BEL-7404, HepG2, NCI-H460, T-24 and A549, as well as human normal liver cell line HL-7702, were tested by the MTT assay. Cisplatin was also tested for comparison.
(§2) All the cells were maintained in DMEM (Dulbecco’s Modified Eagle Medium) supplemented with 10% fetal calf serum, 100 units/mL ampicillin and […] streptomycin sulfate at 37 °C in a humidified atmosphere under 5% CO2. Compounds 1–5 were dissolved in DMSO at a concentration of 2.0 mM stock solution. The stock was diluted by PBS to the required concentration immediately before use.
(§3) Cisplatin was prepared according to a literature procedure. The cells were all grown in 96-well, flat-bottomed microtiter plates. Compounds 1–5 and cisplatin were dissolved in the culture medium (containing 1% DMSO) to a concentration of 100 μg/mL. The resultant solutions were subsequently added to a set of wells. The wells for control contained the supplemented medium with 1% DMSO. The microtiter plates were incubated at 37 °C in a humidified atmosphere of 5% CO2/95% air for a further 48 h. At the end of each incubation period, the 3-(4,5-dimethylthiazol-2-yl)-2,5-diphenyltetrazolium bromide (MTT) solution (10 μL, 5 mg/mL) was added into each well and the cultures were further incubated for 6 h under the same conditions. After the removal of the supernatant, DMSO (100 μL) was added to dissolve the formazan crystals. The absorbance of the solution was read by an enzyme-labeled microplate reader with 490/630 nm double wavelength measurement. The cytotoxicity was evaluated based on the percentage of cell survival in a dose-dependent manner relative to the negative control. The final IC50 values were calculated by the Bliss method (n = 5). All tests were repeated in at least three independent trials.

NCI-H460 tumor cell line = test: MTT cytotoxicity assay, NCI-H460; type: cell-based, human; settings: for IC50: 48 h, MTT, mean ± SD; for inhibition at 20 µM: read-out: Inhibition rate NCI-H460
Method: as §1, §2, §3

T-24 tumor cell line = test: MTT cytotoxicity assay, T-24; type: cell-based, human; settings: for IC50: 48 h, MTT, mean ± SD; for inhibition at 20 µM: read-out: Inhibition rate T-24
Method: as §1, §2, §3

BEL-7404 tumor cell line = test: MTT cytotoxicity assay, BEL-7404; type: cell-based, human; settings: for IC50: 48 h, MTT, mean ± SD; for inhibition at 20 µM: read-out: Inhibition rate BEL-7404
Method: as §1, §2, §3

HepG2 tumor cell line = test: MTT cytotoxicity assay, HepG2; type: cell-based, human; settings: for IC50 / inhibition at 20 µM: Homo sapiens, HepG2; for IC50: 48 h, mean ± SD; for IC50 / Growth inhibition on HepG2 cell lines (in words): MTT; for inhibition at 20 µM: read-out: Inhibition rate HepG2; for Cytotoxicity toward HepG2 enhanced compared with normal liver cell HL-7702: ratio of IC50 HL-7702 to IC50 HepG2
Method: as §1, §2, §3

A549 tumor cell line = test: MTT cytotoxicity assay, A549; type: cell-based; settings: Homo sapiens; for IC50: 48 h, MTT, mean ± SD; for inhibition at 20 µM: complexes 1-5 at 20 μM, incubation 48 h, read-out: Inhibition rate A549
Method: as §1, §2, §3

[2] = complexes 1-5 at 20 μM, incubation 48 h
[3] = Homo sapiens, L02, complexes 1-5 at 20 μM, incubation 48 h
[4] = Homo sapiens, NCI-H460, complexes 1-5 at 20 μM, incubation 48 h
[5] = Homo sapiens, complexes 1-5 at 20 μM, incubation 48 h
[6] = Homo sapiens, BEL-7404, complexes 1-5 at 20 μM, incubation 48 h

| SMILES | IC50 ([1]; Homo sapiens, L02) | inhibition at 20 µM [1, 3] | IC50 (NCI-H460 tumor cell line; Homo sapiens, NCI-H460) | inhibition at 20 µM (NCI-H460 tumor cell line; [4]) | IC50 (A549 tumor cell line) | inhibition at 20 µM (A549 tumor cell line) | IC50 (T-24 tumor cell line; Homo sapiens) | inhibition at 20 µM (T-24 tumor cell line; [5]) | IC50 (BEL-7404 tumor cell line; Homo sapiens, BEL-7404) | inhibition at 20 µM (BEL-7404 tumor cell line; [6]) | IC50 (HepG2 tumor cell line) | inhibition at 20 µM (HepG2 tumor cell line; [2]) | Growth inhibition on HepG2 cell lines (in words) (HepG2 tumor cell line) | Cytotoxicity toward HepG2 enhanced compared with normal liver cell HL-7702 (HepG2 tumor cell line) | also measured |
| --- | --- | --- | --- | --- | --- | --- | --- | --- | --- | --- | --- | --- | --- | --- | --- |
| N.N.[Cl][Pt][Cl] [Cisplatin, reference compound] |  |  |  |  |  |  |  |  |  |  |  |  |  |  | IC50 [1]: 5.63 ± 0.32 µM; Inhibition rate HL-7702 [1, 2]: 73.58±2.30; IC50 (NCI-H460 tumor cell line): 18.9 ± 1.02 µM; Inhibition rate NCI-H460 (NCI-H460 tumor cell line; [2]): 50.88±3.69; IC50 (T-24 tumor cell line): 28.1 ± 1.88 µM; Inhibition rate T-24 (T-24 tumor cell line; [2]): 47.58±2.65; IC50 (BEL-7404 tumor cell line): 12.4 ± 0.38 µM; Inhibition rate BEL-7404 (BEL-7404 tumor cell line; [2]): 55.15±1.18; Inhibition rate HepG2 (HepG2 tumor cell line; [2]): 60.63±0.99 |
| COC(=O)c1cc(OC(C)=O)n(-c2cccc(Br)n2)n1 [Compound 1, Methyl 5-(acetyloxy)-1-(6-bromo-2-pyridinyl)-1H-pyrazole-3-carboxylate] | 111 ± 2.84 µM | 26.5 ± 0.42% | 109 ± 1.65 µM | 34 ± 1.76% | 37.6 ± 1.03 µM | 31.1 ± 1.39% | 70.5 ± 1.33 µM | 37.6 ± 1.72% | 66.5 ± 1.13 µM | 38.2 ± 1.99% | 37.1 ± 0.54 µM | 47.21 ± 0.44% | weakly growth inhibition | 2.98 times |  |
| COC(=O)c1cc(O)n(-c2cccc(Br)n2)n1 [Compound 2, Methyl 1-(6-bromo-2-pyridinyl)-5-hydroxy-1H-pyrazole-3-carboxylate] | 118 ± 3.34 µM | 24.7 ± 0.59% | 40.7 ± 0.54 µM | 38 ± 0.62% | 44.8 ± 1.12 µM | 22.4 ± 1.74% | 46.2 ± 0.87 µM | 42.5 ± 0.96% | 125 ± 1.87 µM | 20.2 ± 1.18% | 29.8 ± 0.91 µM | 43 ± 0.74% | weakly growth inhibition | 3.98 times |  |
| COC(=O)C1=NN(c2cccc(Br)n2)C(=O)C1(c1c(C(=O)OC)nn(-c2cccc(Br)n2)c1O)c1c(C(=O)OC)nn(-c2cccc(Br)n2)c1O [Compound 3, Trimethyl 1,1′,1′′-tris(6-bromo-2-pyridinyl)-5,5′′-dihydroxy-5′-oxo-1′,5′-dihydro-1H,1′′H-4,4′: 4′,4′′-terpyrazole-3,3′,3′′-tricarboxylate] | 151 ± 3.06 µM | 22.2 ± 1.05% | 38 ± 0.89 µM | 42.5 ± 2.27% | 33.6 ± 1.07 µM | 33.3 ± 2.51% | 85.38 ± 0.67 µM | 32 ± 0.89% | 112 ± 2.78 µM | 24.6 ± 0.75% | 54.7 ± 0.81 µM | 41 ± 1.27% |  | 2.76 times |  |
| COC(=O)C1=NN(c2cccc(Br)n2)C2(C(C(=O)OC)=NN(c3cccc(Br)n3)C2O)C1(C(=O)OC)c1c(C(=O)OC)nn(-c2cccc(Br)n2)c1O (stereo not shown) [Compound 4, Trimethyl-1,8-bis(6-bromopyridin-2-yl)-4-(1-(6-bromopyridin-2-yl)-5-hydroxy-3-(methoxycarbonyl)-1H-pyrazol-4-yl)-9-hydroxy-1,2,7,8-tetraazaspiro[4.4]nona-2,6-diene-3,4,6-tricarboxylate] | 96.14 ± 0.49 µM | 35.1 ± 1.34% | 66.48 ± 0.57 µM | 33.6 ± 1.38% | 28.1 ± 1.01 µM | 40.2 ± 0.44% | 42.9 ± 1.41 µM | 43.2 ± 1.15% | 41.81 ± 0.37 µM | 39.6 ± 1.43% | 10.7 ± 0.38 µM | 53.3 ± 0.92% |  | 9.02 times | Increase in HepG2 cytotoxicity compared to the free ligand 5 (HepG2 tumor cell line; IC50 of 5 relative to IC50 of 4, HepG2): approximately 16.44 fold |
| COC(=O)C1=NN(c2cccc(Br)n2)C2(C(C(=O)O)=NN(c3cccc(Br)n3)C2O)C1(C(=O)OC)c1c(C(=O)OC)nn(-c2cccc(Br)n2)c1O (stereo not shown) [Compound 5, 1,8-Bis(6-bromopyridin-2-yl)-4-(1-(6-bromopyridin-2-yl)-5-hydroxy-3-(methoxycarbonyl)-1H-pyrazol-4-yl)-9-hydroxy-3,4-bis(methoxycarbonyl)-1,2,7,8-tetraazaspiro[4.4]nona-2,6-diene-6-carboxylic acid] | 102.3 ± 0.85 µM | 26.9 ± 0.79% | 94.56 ± 0.41 µM | 25.4 ± 0.34% | 77.56 ± 0.72 µM | 29.4 ± 0.65% | 76 ± 1.16 µM | 35.9 ± 1.26% | 84.3 ± 1.01 µM | 27.2 ± 0.94% | 175.2 ± 1.1 µM | 19.5 ± 1.05% |  |  |  |
